Laboratory results taken from US20200032313A1 (SANYO CHEMICAL INDUSTRIES, LTD., priority 2017, published 2020).
Like-named read-outs stand apart in the source and are kept apart here.

Experiments:
Assay type in all cases: cell-based
[1] = system: luciferase-expressing Saccharomyces cerevisiae; conditions: S. cerevisiae, 8 hours culturing after addition
Protocol: (§1) Transformation was performed using Saccharomyces cerevisiae distributed by Biotechnology Center, National Institute of Technology and Evaluation, whereby luciferase-expressing microorganisms were produced. A vector pYES2 (Thermo Fisher Scientific) was digested with HindIII and XbaI, and a synthetic (synthesized by Thermo Fisher Scientific on commission) a factor-luciferase gene having a HindIII cut site at one end and an XbaI cut site at the other end was inserted into the vector. The microorganisms were transformed by the a factor-luciferase gene-inserted pYES2 according to the method described in an instruction manual of pYES2. The luciferase-expressing microorganisms were inoculated using a platinum loop into YPD broth (yeast extract 1 wt % (Difco), bacto peptone 2 wt % (Difco), and glucose 2 wt %) and were shake-cultured at 200 rpm at 30° C. for 15 hours. Then, the thus-obtained broth was resuspended in 125-ml YPD broth (containing 100 mM potassium hydrogen phosphate buffer; pH: 6) to a final optical density (hereinafter sometimes abbreviated as “OD”) of 0.1 OD/ml.
The optical density of the broth was measured under the same conditions as for “Method of measuring the optical density of broth” described later.
(§2) Further, the resuspended broth was continued to be shake-cultured at 1100 rpm at 30° C. for about 17 hours until OD was 20 to 30. When OD was 20 to 30, the broth was centrifuged (1500 g, 10 min), and resuspended in 125-ml galactose-inducing broth (the YPD broth containing 100 mM potassium phosphate buffer and also containing 2% galactose instead of glucose; pH: 6), followed by culturing at 1100 rpm at 30° C. for 2 hours.
(§3) Subsequently, the surfactant described in Table 1 was added to the broth in the amount (wt %) described in Table 1, and the broth was cultured at 1100 rpm at 30° C. for 8 hours. Subsequently, the broth was sampled for measuring the optical density (optical density at the end of culturing) and for measuring the secretion efficiency. Then, these samples were subjected to centrifugation using a centrifuge to separate bacteria and the supernatant from the broth. Then, the supernatant and the bacteria were collected.
The optical density of the broth containing the microorganisms collected by sampling was measured in a quartz cell (light path of 1 cm) using a spectrophotometer (UV-1700, Shimadzu Corporation).
The broth was centrifuged at 1500 rpm at 4° C. for 5 minutes, and the supernatant was discarded. The precipitate was resuspended in a saline solution in an amount equal to the amount of the sample solution, and was diluted in the saline solution to obtain an appropriate absorbance (0.1 to 0.8). Then, the absorbance at 600 nm was measured. The optical density of the broth was calculated using the following mathematical formula (1).
Broth optical density(OD)=(Absorbance of diluted broth at 600 nm)×dilution factor of broth (Mathematical formula 1)

[2] = system: luciferase-expressing Saccharomyces cerevisiae; conditions: S. cerevisiae, 8 hours
Protocol: as §1, §2, §3
(§4) The broth obtained in each of Examples 1 to 22 and Comparative Examples 1 and 2 was 10 to 1000-fold diluted in a 0.2 M Tris-HCl buffer (pH 7.4), and 20 μl of the dilution was mixed with 60 μl of a luciferin solution described below to obtain a sample. The emission intensity of the sample was measured using a luminometer under the following conditions, and the measured emission intensity was substituted into the following formula. The resulting value was regarded as the luciferase activity of the secreted and produced useful substance.
(§5) Luminometer: “Glomax Navigator” available from Promega Corporation Luciferin solution: product of New England Biolabs Japan Inc. Measurement temperature: 25° C. Detector: emission detector Detection wavelength: 350 to 700 nm
(§6) (Luciferase activity of secreted and produced useful substance)=(Emission intensity)×dilution factor/(optical density at the end of culturing)
(§7) The bacteria obtained in each of Examples 1 to 22 and Comparative Examples 1 and 2 were mixed with a 0.2 M Tris-HCl buffer (pH 7.4) in an amount of 200 μl that is equal to the amount of the removed supernatant, followed by centrifugation, whereby the bacteria were washed. The washed bacteria were resuspended in a 0.2 M Tris-HCl buffer (pH 7.4) in an amount of 200 μl that is equal to the amount of the washed supernatant, and 10 to 1000-fold diluted in a 0.2 M Tris-HCl buffer (pH 7.4). The resulting dilution was used as a sample for measuring the luciferase activity on the bacterial surface.
Then, 20 μl of the sample for measuring the luciferase activity on the bacterial surface was mixed with 60 μl of the luciferin solution to obtain a sample. The emission intensity of the sample was measured under the same conditions as for “Measurement of luciferase activity of secreted and produced useful substance”, and the measured emission intensity was substituted into the following formula. […]

[3] = system: luciferase-expressing Pichia pastoris; conditions: 8 hours
Protocol: Transformation was performed using Pichia pastoris distributed by Biotechnology Center, National Institute of Technology and Evaluation, whereby luciferase-expressing microorganisms were produced. A vector pPICZ a (Thermo Fisher Scientific) was digested with XhoI and XbaI, and a synthetic (synthesized by Thermo Fisher Scientific on commission) luciferase gene having an XhoI cut site at one end and an XbaI cut site at the other end was inserted into the vector. The microorganisms were transformed by the luciferase gene-inserted pPICZ a according to the method described in an instruction manual of pPICZ a. The luciferase-expressing microorganisms were inoculated using a platinum loop into BMGY broth, and were shake-cultured at 200 rpm at 30° C. for 15 hours. Then, the thus-obtained broth was resuspended in 125-ml BMGY broth (yeast extract 1 wt % (Difco), bacto peptone 2 wt % (Difco), yeast nitrogen base w/o amino acid 1.34 wt % (Difco), glucose 2 wt %, and 100 mM potassium hydrogen phosphate; pH: 6.0) to a final OD of 0.1 OD/ml. Further, the resuspended broth was continued to be shake-cultured at 1100 rpm at 30° C. for about 17 hours until OD was 20 to 30. When OD was 20 to 30, the broth was centrifuged (1500 g, 10 min), and resuspended in 125-ml BMMY broth, followed by culturing at 1100 rpm at 30° C. for 2 hours.
as §3, with “Two hours later, the surfactant” for “Subsequently, the surfactant”, “in Table 2 was added” for “in Table 1 was added”, “in Table 2, and the” for “in Table 1, and the”
as §4, §5, §6, §7
Then, 20 μl of the sample for measuring the luciferase activity on the bacterial surface was mixed with 60 μl of the luciferin solution to obtain a sample. The emission intensity of the sample was measured under the same conditions as for “Measurement of luciferase activity of secreted and produced useful substance”, and the measured emission intensity was substituted into the following formula. The resulting value was regarded as the luciferase activity of the useful substance remaining on the bacterial surface. […]

[4] = surfactant 0.003 wt % of broth, Example 1
[5] = surfactant 0.03 wt % of broth, Examples 2, 5-11
[6] = surfactant 0.3 wt % of broth, Example 3
[7] = surfactant 3 wt % of broth, Example 4
[8] = surfactant 0.03 wt % of broth, Examples 13, 16-22

## CCCCCCCCCCCCNCCC(=O)O
[1]; [4]
  Optical density (OD) of broth at the end of culturing: 23.5 OD
[1]; [5]
  Optical density (OD) of broth at the end of culturing: 21.2 OD
[1]; [6]
  Optical density (OD) of broth at the end of culturing: 18.2 OD
[1]; [7]
  Optical density (OD) of broth at the end of culturing: 10.9 OD
[2]; [4]
  Secretion efficiency (%): 56%
[2]; [5]
  Secretion efficiency (%): 61%
[2]; [6]
  Secretion efficiency (%): 65%
[2]; [7]
  Secretion efficiency (%): 75%
[3]; surfactant 0.003 wt % of broth, Example 12
  Secretion efficiency (%): 64%
[3]; [8]
  Secretion efficiency (%): 80%
[3]; surfactant 0.3 wt % of broth, Example 14
  Secretion efficiency (%): 84%
[3]; surfactant 3 wt % of broth, Example 15
  Secretion efficiency (%): 67%

## CCCCCCCCCCCC[N+](C)(C)C.[Cl-] [Surfactant (A2-1), lauryl trimethyl ammonium chloride]
[1]; [5]
  Optical density (OD) of broth at the end of culturing: 13.8 OD
[2]; [5]
  Secretion efficiency (%): 52%
[3]; [8]
  Secretion efficiency (%): 88%

## CCCCCCCCCCCC[N+](C)(C)CCCS(=O)(=O)O.[OH-] [Surfactant (A3-3), dodecyldimethyl(3-sulfopropyl)ammonium hydroxide]
[1]; [5]
  Optical density (OD) of broth at the end of culturing: 21.8 OD
[2]; [5]
  Secretion efficiency (%): 61%
[3]; [8]
  Secretion efficiency (%): 75%

## CCCCCCCCCCCCCCCCOP(=O)([O-])OCC[N+](C)(C)C [Surfactant (A3-4), miltefosine, reference compound]
[1]; [5]
  Optical density (OD) of broth at the end of culturing: 21.1 OD
[2]; [5]
  Secretion efficiency (%): 59%
[3]; [8]
  Secretion efficiency (%): 66%

## CCCCCCCCCCCC[N+](C)(C)CC(=O)[O-] [Surfactant (A3-5), betaine lauryldimethylaminoacetate]
[1]; [5]
  Optical density (OD) of broth at the end of culturing: 20.4 OD
[2]; [5]
  Secretion efficiency (%): 56%
[3]; [8]
  Secretion efficiency (%): 90%

## sodium (2-dodecylamino)ethanesulfonate [Surfactant (A3-1)]
[1]; [5]
  Optical density (OD) of broth at the end of culturing: 22.0 OD
[2]; [5]
  Secretion efficiency (%): 60%
[3]; [8]
  Secretion efficiency (%): 62%

## sodium polyoxyethylene (average 2.5 mol adduct) lauryl ether sulfate [Surfactant (A1-1)]
[1]; [5]
  Optical density (OD) of broth at the end of culturing: 21.9 OD
[2]; [5]
  Secretion efficiency (%): 66%
[3]; [8]
  Secretion efficiency (%): 66%

## sodium polyoxyethylene (average 3 mol adduct) lauryl ether acetate [Surfactant (A1-2)]
[1]; [5]
  Optical density (OD) of broth at the end of culturing: 22.1 OD
[2]; [5]
  Secretion efficiency (%): 58%
[3]; [8]
  Secretion efficiency (%): 64%
